# Test results published in patent US8518492B2, “Composition, method for manufacturing thin film, and method for manufacturing light-emitting element” (Semiconductor Energy Laboratory Co., Ltd., priority 2008, dated 2013).
# Read-outs that look alike come from different tables or passages of the source.
# Tests used:
# [1] = Film quality test of spin-coated thin films; assay type: physicochemical; design: key to Film Quality Test, Solvent Toluene / Film Quality Test, Solvent Ethyl acetate / Film Quality Test, Solvent Anisole / Film Quality Test, Solvent dioxane: ◯: a circle is marked in the case of a transparent film where crystallization or white turbidity is not seen; X: a cross is marked in the case of a film where crystallization or white turbidity is seen; details: for Film Quality Test, Solvent Anisole: 10 g/L in anisole; for Film Quality Test, Solvent Anisole / Film Quality Test, Solvent dioxane / Film Quality Test, Solvent Ethyl acetate / Film Quality Test, Solvent Toluene: spin coated on glass substrate at 1000 rpm (60 seconds); for Film Quality Test, Solvent dioxane: 10 g/L in dioxane; for Film Quality Test, Solvent Ethyl acetate: 10 g/L in ethyl acetate; for Film Quality Test, Solvent Toluene: 10 g/L in toluene
# Procedure: A composition of each of the samples was adjusted at a concentration of 10 g/L which is the same as that of the solubility test and was deposited over a glass substrate with a size of 5 inches at 1000 rpm (60 seconds) with a spin coater.
# [2] = Solubility test of anthracene derivatives in solvents; assay type: physicochemical; details: for solubility at 10 min: organic solvent or mixture, thermodynamic from solid, ultrasonic waves 10 minutes; for solubility in a solvent (summary in words): solubility test at 10 g/L, six solvents
# Procedure: As comparative examples, compositions were produced by dissolving samples 1-1 to 1-4 in solvents. As manufacturing examples 1, compositions were produced by dissolving samples 1-5 to 1-14 in solvents. The solubility test was performed on the solvents of the anthracene derivatives of the samples […]. The following six solvents were used: diethyl ether, toluene, ethyl acetate, anisole, acetone, and 1,4-dioxane.
# 0.01 g of each of the anthracene derivatives of the samples 1-1 to 1-14 was measured and put in a sample bottle, 1 mL of a solvent was added in the sample bottle (the solution concentration was 10 g/L), and ultrasonic waves were applied thereto for 10 minutes.
# [3] = 0.01 g in 1 mL 1,4-dioxane (10 g/L), read-out: Solubility Test, Solvent dioxane
# [4] = 0.01 g in 1 mL acetone (10 g/L), read-out: Solubility Test, Solvent acetone
# [5] = 0.01 g in 1 mL anisole (10 g/L), read-out: Solubility Test, Solvent Anisole
# [6] = 0.01 g in 1 mL diethyl ether (10 g/L), read-out: Solubility Test, Solvent Diethyl ether
# [7] = 0.01 g in 1 mL ethyl acetate (10 g/L), read-out: Solubility Test, Solvent Ethyl acetate
# [8] = 0.01 g in 1 mL toluene (10 g/L), read-out: Solubility Test, Solvent Toluene
"Film Quality Test, Solvent Anisole [1]","Film Quality Test, Solvent dioxane [1]","Film Quality Test, Solvent Ethyl acetate [1]","Film Quality Test, Solvent Toluene [1]","solubility at 10 min [2, 3] [µg/mL]","solubility at 10 min [2, 4] [µg/mL]","solubility at 10 min [2, 5] [µg/mL]","solubility at 10 min [2, 6] [µg/mL]","solubility at 10 min [2, 7] [µg/mL]","solubility at 10 min [2, 8] [µg/mL]",SMILES,"film quality (summary in words) ([1]; film quality test, spin coated from 10 g/L composition)",solubility in a solvent (summary in words) [2]
◯,X,X,◯,> 10000,< 10000,> 10000,< 10000,< 10000,> 10000,"c1ccc(-c2c3ccccc3c(-c3ccc(-c4ccc5c(c4)c4ccccc4n5-c4ccccc4)cc3)c3ccccc23)cc1 [Sample 1-6, 9-phenyl-3-[4-(10-phenyl-9-anthryl)phenyl]-9H-carbazol]",–,–
◯,X,X,◯,> 10000,< 10000,> 10000,–,< 10000,> 10000,"c1ccc(-c2c3ccccc3c(-c3ccccc3)c3cc(-c4ccc(-n5c6ccccc6c6ccccc65)cc4)ccc23)cc1 [Sample 1-11, 9-[4-(9,10-diphenyl-2-anthryl)phenyl]-9H-carbazole]",–,–
◯,X,◯,◯,> 10000,< 10000,> 10000,> 10000,> 10000,> 10000,"c1ccc(-c2c3ccccc3c(-c3ccccc3)c3cc(-n4c5ccccc5c5ccccc54)ccc23)cc1 [Sample 1-12, 9-(9,10-diphenyl-2-anthryl)-9H-carbazole]",–,–
◯,X,◯,◯,> 10000,> 10000,> 10000,–,> 10000,> 10000,"c1ccc(-c2c3ccccc3c(-c3ccccc3)c3cc(-c4ccc5c(c4)c4ccccc4n5-c4ccccc4)ccc23)cc1 [Sample 1-13, 3-(9,10-diphenyl-2-anthryl)-9-phenyl-9H-carbazole]",–,–

# More lines, now with the values behind:
SMILES,"Film Quality Test, Solvent Anisole [1]","Film Quality Test, Solvent dioxane [1]","Film Quality Test, Solvent Ethyl acetate [1]","Film Quality Test, Solvent Toluene [1]","solubility at 10 min [2, 3] [µg/mL]","solubility at 10 min [2, 4] [µg/mL]","solubility at 10 min [2, 5] [µg/mL]","solubility at 10 min [2, 6] [µg/mL]","solubility at 10 min [2, 7] [µg/mL]","solubility at 10 min [2, 8] [µg/mL]","film quality (summary in words) ([1]; film quality test, spin coated from 10 g/L composition)",solubility in a solvent (summary in words) [2]
"c1ccc(-c2c3ccccc3c(-c3ccccc3)c3ccccc23)cc1 [Sample 1-1, 9,10-diphenylanthracene, reference compound]",X,X,X,X,< 10000,< 10000,> 10000,< 10000,< 10000,> 10000,crystallized film with a bad quality,high solubility
"c1ccc2c(-c3ccc(-n4c5ccccc5c5ccccc54)cc3)c3ccccc3c(-c3ccc(-n4c5ccccc5c5ccccc54)cc3)c2c1 [Sample 1-2, 9,10-bis(4-(N-carbazolyl)phenyl)anthracene, reference compound]",–,–,–,–,< 10000,< 10000,< 10000,< 10000,< 10000,< 10000,–,low solubility
"c1ccc(-c2c3ccccc3c(-c3ccc(-n4c5ccccc5c5cc(-c6ccc7c(c6)c6ccccc6n7-c6ccccc6)ccc54)cc3)c3ccccc23)cc1 [Sample 1-3, 9-phenyl-9′-[4-(10-phenyl-9-anthryl)phenyl]-3,3′-bi(9H-carbazole), reference compound]",–,–,–,–,< 10000,< 10000,< 10000,< 10000,< 10000,< 10000,–,low solubility
"CC(C)(C)c1ccc2c(-c3ccc(-c4ccc5c(c4)c4ccccc4n5-c4ccccc4)cc3)c3ccccc3c(-c3ccc(-c4ccc5c(c4)c4ccccc4n5-c4ccccc4)cc3)c2c1 [Sample 1-4, 3,3′-(2-tert-buthylanthracene-9,10′-diyldi-4,1-phenylene)bis(9-phenyl-9H-carbazole), reference compound]",–,–,–,–,–,–,–,–,–,–,–,low solubility
"c1ccc(-c2c3ccccc3c(-c3ccc(-n4c5ccccc5c5ccccc54)cc3)c3ccccc23)cc1 [Sample 1-5, 9-[4-(N-carbazolyl)]phenyl-10-phenylanthracene]",◯,X,X,◯,–,–,–,–,–,–,–,–
"c1ccc(-c2c3ccccc3c(-c3cccc(-n4c5ccccc5c5ccccc54)c3)c3ccccc23)cc1 [Sample 1-7, 9-[3-(10-phenyl-9-anthryl)phenyl]-9H-carbazole]",◯,◯,X,◯,> 10000,< 10000,> 10000,< 10000,< 10000,> 10000,–,–
"CC(C)(C)c1ccc(-c2c3ccccc3c(-c3ccc(-n4c5ccccc5c5ccccc54)cc3)c3ccccc23)cc1 [Sample 1-8, 9-(4-tert-butylphenyl)-10-[4-(carbazol-9-yl)]phenylanthracene]",◯,X,X,◯,–,–,–,–,–,–,–,–
"c1ccc2cc(-c3c4ccccc4c(-c4ccc(-n5c6ccccc6c6ccccc65)cc4)c4ccccc34)ccc2c1 [Sample 1-9, 9-[4-(carbazol-9-yl)phenyl]-10-(2-naphthyl)anthracene]",◯,X,X,◯,> 10000,< 10000,> 10000,< 10000,< 10000,> 10000,–,–
"c1ccc(-c2ccc3c(c2)c2cc(-c4ccccc4)ccc2n3-c2ccc(-c3c4ccccc4c(-c4ccccc4)c4ccccc34)cc2)cc1 [Sample 1-10, 3,6-diphenyl-9-[4-(10-phenyl-9-antryl)phenyl]-9H-carbazole]",◯,X,X,◯,–,–,–,–,–,–,–,–
"c1ccc(-c2ccccc2-c2c3ccccc3c(-c3ccccc3-c3ccccc3)c3cc(-n4c5ccccc5c5ccccc54)ccc23)cc1 [Sample 1-14, 9-[9,10-bis(2-biphenyl)-2-anthryl]-9H-carbazole]",◯,X,◯,◯,–,–,–,–,–,–,–,–
